pIC50: −log10 of the molar value.
Molecular target: HDM2 (Homo sapiens (Human), UniProt Q00987)
Assay: HDM2 FRET assay (inhibition of p53 peptide binding to HDM2)
Conditions: read-out: FRET IC50
Excerpt: Methods: An HDM2 FRET assay was developed to assess the compounds' inhibitory activity towards binding of p53 protein. […] Ratio of em520/em495 was used to calculate % inhibition and to obtain IC50 with 4-parameter logistic equation.
Concentration of compound was plotted against em520/Cem495 ratio signal. To generate IC50 values, the dose-response curves were fitted to a standard sigmoidal curve and IC50 values were derived by nonlinear regression analysis.

HDM2, sequence (Q00987 17-125): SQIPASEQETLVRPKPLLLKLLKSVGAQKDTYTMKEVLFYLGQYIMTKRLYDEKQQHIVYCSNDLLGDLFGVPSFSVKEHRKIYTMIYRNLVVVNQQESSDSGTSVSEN

| SMILES | pIC50 |
| --- | --- |
| C[C@H]1CC[C@H](Cn2c(N3CCO[C@@H]4CCC[C@H]43)nc3cc(-c4nnn[nH]4)nc(-c4cncc(Cl)c4)c32)CC1 [Example 14.4, 4-(5-chloropyridin-3-yl)-2-[(4aR,7aR)-hexahydrocyclopenta[b][1,4]oxazin-4(4aH)-yl]-3-[(trans-4-methylcyclohexyl)methyl]-6-(1H-tetrazol-5-yl)-3H-imidazo[4,5-c]pyridine] | > 9.00 |
| C[C@H]1CC[C@H](Cn2c(N3CCC[C@H]3C(F)(F)F)nc3cc(-c4nnn[nH]4)nc(-c4cncc(Cl)c4)c32)CC1 [Example 14.1, 4-(5-chloropyridin-3-yl)-3-[(trans-4-methylcyclohexyl)methyl]-6-(1H-tetrazol-5-yl)-2-[(2S)-2-(trifluoromethyl)pyrrolidin-1-yl]-3H-imidazo[4,5-c]pyridine] | > 9.00 |

Same assay, conditions: read-out: FRET IC50; 0.5 nM HDM2 (residues 17-125), 3 nM FITC peptide, 2 h at room temperature; values rounded to the nearest integer

| SMILES | pIC50 |
| --- | --- |
| C[C@H]1CC[C@H](Cn2c(N3CCOC[C@H]3c3ccccc3)nc3cc(-c4noc(=O)[nH]4)nc(-c4cncc(Cl)c4)c32)CC1 [Example 2.1, 3-{4-(5-chloropyridin-3-yl)-3-[(trans-4-methylcyclohexyl)methyl]-2-[(3R)-3-phenylmorpholin-4-yl]-3H-imidazo[4,5-c]pyridin-6-yl}-1,2,4-oxadiazol-5(4H)-one] | > 9.00 |
| C[C@H]1CC[C@H](Cn2c(N3CCC[C@H]3c3nccs3)nc3cc(-c4noc(=O)[nH]4)nc(-c4cncc(Cl)c4)c32)CC1 [Example 3.81, 3-{4-(5-chloropyridin-3-yl)-3-[(trans-4-methylcyclohex-yl)methyl]-2-[(2S)-2-(1,3-thiazol-2-yl)pyrrolidin-1-yl]-3H-imidazo[4,5-c]pyridin-6-yl}-1,2,4-oxadiazol-5(4H)-one] | > 9.00 |
| COCCO[C@@H]1C[C@@H](C(C)C)N(c2nc3cc(-c4noc(=O)[nH]4)nc(-c4cncc(Cl)c4)c3n2C[C@H]2CC[C@H](C)CC2)C1 [Example 3.144, 3-{4-(5-chloropyridin-3-yl)-2-[(2S,4R)-4-(2-methoxyethoxy)-2-(1-methylethyl)-pyrrolidin-1-yl]-3-[(trans-4-methylcyclohex-yl)methyl]-3H-imidazo[4,5-c]pyridin-6-yl}-1,2,4-oxadiazol-5(4H)-one] | > 9.00 |
| CO[C@@H]1C[C@@H](C(C)C)N(c2nc3cc(-c4noc(=O)[nH]4)nc(-c4cncc(Cl)c4)c3n2C[C@H]2CC[C@H](C)CC2)C1 [Example 3.90, 3-{4-(5-chloropyridin-3-yl)-2-[(2S,4R)-4-methoxy-2-(propan-2-yl)pyrrolidin-1-yl]-3-[(trans-4-methylcyclohexyl)methyl]-3H-imidazo[4,5-d]pyridin-6-yl}-1,2,4-oxadiazol-5(4H)-one] | > 9.00 |

From patent publication US8846657B2, “Substituted imidazopyridines as HDM2 inhibitors” (Merck Sharp & Dohme Corp., priority 2012, dated 2014)
